These results are taken from the supplement of paper PMC10307832.

Holding throughout (assay): relative viability (nuclei count vs DMSO), 5 days (fraction); higher = more cells survive
Compound in the experiment “TGX 221 + Navitoclax”: CC1=CN2C(=O)C=C(N=C2C(=C1)C(C)NC3=CC=CC=C3)N4CCOCC4 [TGX 221] + CC1(C)CCC(c2ccc(Cl)cc2)=C(CN2CCN(c3ccc(C(=O)NS(=O)(=O)c4ccc(N[C@H](CCN5CCOCC5)CSc5ccccc5)c(S(=O)(=O)C(F)(F)F)c4)cc3)CC2)C1 [Navitoclax] (partner 0.5 µM)
The procedure, abridged:
(§1)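 Cells from lung cancer lines were seeded into 1536-well plates and, one day later, dosed by pin tool. Treatments were either a single drug or a fixed dose of an anchor drug with five library-drug doses (not always all listed) in √10 steps. After 5 days, nuclei were stained in a one-step fixation (final 0.05% Triton X-100, 1% formaldehyde, 1 ug/ml Hoechst) and counted on 4× images, and relative viability is the treated-to-vehicle nuclei ratio, as the median of duplicate plates.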

Compound in experiment [1]: O=C(CCCCCCNC(=O)c1cnc(N(c2ccccc2)c2ccccc2)nc1)NO [Ricolinostat] + CC(=O)c1c(C)c2cnc(Nc3ccc(N4CCNCC4)cn3)nc2n(C2CCCC2)c1=O [Palbociclib] (partner 0.5 µM)
The procedure, abridged:
as §1

Compound in experiment [2]: O=C(CCCCCCNC(=O)c1cnc(N(c2ccccc2)c2ccccc2)nc1)NO [Ricolinostat] + CCNC(=O)c1noc(-c2cc(C(C)C)c(O)cc2O)c1-c1ccc(CN2CCOCC2)cc1 [Luminespib] (partner 0.01 µM)
The procedure, abridged: as §1

Compound in the experiment “Ricolinostat + Lapatinib”: O=C(CCCCCCNC(=O)c1cnc(N(c2ccccc2)c2ccccc2)nc1)NO [Ricolinostat] + CS(=O)(=O)CCNCc1ccc(-c2ccc3ncnc(Nc4ccc(OCc5cccc(F)c5)c(Cl)c4)c3c2)o1 [Lapatinib] (partner 2 µM)
Summed up: as §1

Consider NCI-H1944, for which the relative viability with TGX 221 + Navitoclax (first compound 0.08 µM) is 0.981; with TGX 221 + Navitoclax (first compound 0.253 µM) it was 1.02; in the experiment with TGX 221 + Navitoclax (first compound 0.8 µM), 1; with TGX 221 + Navitoclax (first compound 2.53 µM), 0.943; with TGX 221 + Navitoclax (first compound 8 µM), 0.841; in experiment [1] (first compound 0.08 µM), 0.332. The relative viability in experiment [1] (first compound 0.253 µM) came to 0.307; in experiment [1] (first compound 0.8 µM), 0.309; in experiment [1] (first compound 2.53 µM), 0.297; in experiment [2] (first compound 0.08 µM), 0.663; in experiment [2] (first compound 0.253 µM), 0.686; in experiment [2] (first compound 0.8 µM), 0.629. For the same cell line, the relative viability in experiment [2] (first compound 2.53 µM) worked out at 0.57; in the experiment with Ricolinostat + Lapatinib (first compound 0.08 µM), 0.638; with Ricolinostat + Lapatinib (first compound 0.253 µM), 0.85; in the experiment with Ricolinostat + Lapatinib (first compound 0.8 µM), 0.819; in the experiment with Ricolinostat + Lapatinib (first compound 2.53 µM), 0.854.
201T: the relative viability in the experiment with TGX 221 + Navitoclax (first compound 0.253 µM) is 1.26; in the experiment with TGX 221 + Navitoclax (first compound 0.8 µM), 1.21; with TGX 221 + Navitoclax (first compound 2.53 µM), 1.19; with TGX 221 + Navitoclax (first compound 8 µM) it was 1.15; in experiment [1] (first compound 0.08 µM), 0.362; in experiment [1] (first compound 0.253 µM), 0.356. Besides, the relative viability amounted to 0.36 in experiment [1] (first compound 0.8 µM); 0.369 in experiment [1] (first compound 2.53 µM); 0.94 in experiment [2] (first compound 0.08 µM); 1.04 in experiment [2] (first compound 0.253 µM); 1.09 in experiment [2] (first compound 0.8 µM); 1.08 in experiment [2] (first compound 2.53 µM). Also, the relative viability in the experiment with Ricolinostat + Lapatinib (first compound 0.08 µM) is 0.921; with Ricolinostat + Lapatinib (first compound 0.253 µM), 1.01; in the experiment with Ricolinostat + Lapatinib (first compound 0.8 µM), 0.95; with Ricolinostat + Lapatinib (first compound 2.53 µM), 1.07.
Regarding NCI-H647, the relative viability with TGX 221 + Navitoclax (first compound 0.08 µM) stood at 1.08; in the experiment with TGX 221 + Navitoclax (first compound 0.253 µM), 0.781; with TGX 221 + Navitoclax (first compound 0.8 µM) it was 0.943; in the experiment with TGX 221 + Navitoclax (first compound 2.53 µM) it was 0.88; in the experiment with TGX 221 + Navitoclax (first compound 8 µM) it was 0.622; in experiment [1] (first compound 0.08 µM) it was 0.391. For the same cell line, the relative viability in experiment [1] (first compound 0.253 µM) stood at 0.338; in experiment [1] (first compound 0.8 µM), 0.407; in experiment [1] (first compound 2.53 µM), 0.266; in experiment [2] (first compound 0.08 µM) it was 0.161; in experiment [2] (first compound 0.253 µM), 0.238; in experiment [2] (first compound 0.8 µM), 0.117. Moreover, the relative viability in experiment [2] (first compound 2.53 µM) stood at 0.21; with Ricolinostat + Lapatinib (first compound 0.08 µM), 0.915; in the experiment with Ricolinostat + Lapatinib (first compound 0.253 µM) it was 1.11; in the experiment with Ricolinostat + Lapatinib (first compound 0.8 µM), 1.07; with Ricolinostat + Lapatinib (first compound 2.53 µM), 0.627.
Consider PC-3 [JPC-3], for which the relative viability in the experiment with TGX 221 + Navitoclax (first compound 0.08 µM) stood at 0.722; with TGX 221 + Navitoclax (first compound 0.253 µM), 0.768; in the experiment with TGX 221 + Navitoclax (first compound 0.8 µM), 0.847; with TGX 221 + Navitoclax (first compound 2.53 µM), 0.806; with TGX 221 + Navitoclax (first compound 8 µM) it was 0.863; in experiment [1] (first compound 0.08 µM), 0.533. The relative viability came out at 0.499 in experiment [1] (first compound 0.253 µM); 0.518 in experiment [1] (first compound 0.8 µM); 0.487 in experiment [1] (first compound 2.53 µM); 0.702 in experiment [2] (first compound 0.253 µM); 0.764 in experiment [2] (first compound 0.8 µM); 0.66 in experiment [2] (first compound 2.53 µM). In addition, the relative viability came to 0.351 in the experiment with Ricolinostat + Lapatinib (first compound 0.08 µM), 0.466 in the experiment with Ricolinostat + Lapatinib (first compound 0.253 µM), 0.414 in the experiment with Ricolinostat + Lapatinib (first compound 0.8 µM) and 0.475 with Ricolinostat + Lapatinib (first compound 2.53 µM).
Consider NCI-H2126, for which the relative viability with TGX 221 + Navitoclax (first compound 0.08 µM) was determined as 0.831; in the experiment with TGX 221 + Navitoclax (first compound 0.253 µM), 0.835; with TGX 221 + Navitoclax (first compound 0.8 µM) it was 0.837; with TGX 221 + Navitoclax (first compound 2.53 µM) it was 0.752; with TGX 221 + Navitoclax (first compound 8 µM) it was 0.817; in experiment [1] (first compound 0.08 µM), 0.347. Also, the relative viability in experiment [1] (first compound 0.253 µM) came to 0.347; in experiment [1] (first compound 0.8 µM), 0.353; in experiment [1] (first compound 2.53 µM) it was 0.363; in experiment [2] (first compound 0.253 µM) it was 0.919; in experiment [2] (first compound 0.8 µM) it was 1.01; in experiment [2] (first compound 2.53 µM), 0.862. Besides, the relative viability in the experiment with Ricolinostat + Lapatinib (first compound 0.08 µM) stood at 0.615; in the experiment with Ricolinostat + Lapatinib (first compound 0.253 µM) it was 0.751; with Ricolinostat + Lapatinib (first compound 0.8 µM), 0.719; with Ricolinostat + Lapatinib (first compound 2.53 µM), 0.801.
On to HCC-15, for which the relative viability is 0.745 with TGX 221 + Navitoclax (first compound 0.08 µM); 0.642 with TGX 221 + Navitoclax (first compound 0.253 µM); 0.579 with TGX 221 + Navitoclax (first compound 0.8 µM); 0.67 with TGX 221 + Navitoclax (first compound 2.53 µM); 0.642 with TGX 221 + Navitoclax (first compound 8 µM); 0.779 in experiment [1] (first compound 0.08 µM). For the same cell line, the relative viability turned out to be 0.739 in experiment [1] (first compound 0.253 µM); 0.685 in experiment [1] (first compound 0.8 µM); 0.606 in experiment [1] (first compound 2.53 µM); 0.3 in experiment [2] (first compound 0.08 µM); 0.28 in experiment [2] (first compound 0.253 µM); 0.382 in experiment [2] (first compound 0.8 µM). Also, the relative viability in experiment [2] (first compound 2.53 µM) came out at 0.497; with Ricolinostat + Lapatinib (first compound 0.08 µM), 0.729; with Ricolinostat + Lapatinib (first compound 0.253 µM), 0.808; with Ricolinostat + Lapatinib (first compound 0.8 µM) it was 0.854; with Ricolinostat + Lapatinib (first compound 2.53 µM), 0.899.
As for NCI-H2085, the relative viability amounted to 1.11 with TGX 221 + Navitoclax (first compound 0.08 µM); 0.978 with TGX 221 + Navitoclax (first compound 0.253 µM); 0.951 with TGX 221 + Navitoclax (first compound 0.8 µM); 0.622 with TGX 221 + Navitoclax (first compound 2.53 µM); 0.626 with TGX 221 + Navitoclax (first compound 8 µM); 0.461 in experiment [1] (first compound 0.253 µM). The relative viability in experiment [1] (first compound 0.8 µM) stood at 0.426; in experiment [1] (first compound 2.53 µM), 0.478; in experiment [2] (first compound 0.253 µM) it was 0.447; in experiment [2] (first compound 0.8 µM), 0.37; in experiment [2] (first compound 2.53 µM), 0.357; with Ricolinostat + Lapatinib (first compound 0.253 µM) it was 0.679. In addition, the relative viability with Ricolinostat + Lapatinib (first compound 0.8 µM) came out at 0.715; with Ricolinostat + Lapatinib (first compound 2.53 µM), 0.573.
As for LOU-NH91, the relative viability was 0.705 with TGX 221 + Navitoclax (first compound 0.08 µM); 0.647 in the experiment with TGX 221 + Navitoclax (first compound 0.253 µM); 0.707 in the experiment with TGX 221 + Navitoclax (first compound 0.8 µM); 0.681 with TGX 221 + Navitoclax (first compound 2.53 µM); 0.544 with TGX 221 + Navitoclax (first compound 8 µM); 0.526 in experiment [1] (first compound 0.253 µM). Moreover, the relative viability amounted to 0.587 in experiment [1] (first compound 0.8 µM); 0.514 in experiment [1] (first compound 2.53 µM); 0.322 in experiment [2] (first compound 0.08 µM); 0.371 in experiment [2] (first compound 0.253 µM); 0.347 in experiment [2] (first compound 0.8 µM); 0.313 in experiment [2] (first compound 2.53 µM). Further, the figures for the relative viability with Ricolinostat + Lapatinib (first compound 0.253 µM), with Ricolinostat + Lapatinib (first compound 0.8 µM) and with Ricolinostat + Lapatinib (first compound 2.53 µM) were 0.872, 0.778 and 0.78, respectively.
